Results on 9 compounds are retold here after PMC3618516, “A Systematic Screen of FDA-Approved Drugs for Inhibitors of Biological Threat Agents” (PLoS ONE, 2013).

The test system of data set [1] is MARV GP-pseudotyped vesicular stomatitis virus. The data set can be described thus: microbe, parasite or virus in culture. To be noted: for EC50: read-out: EC50, MARV Entry; for EC90: read-out: EC90, MARV Entry; for inhibition at 10 µM / inhibition at 50 µM: HEK-293T, read-out: MASV VPEN (% activity). Type of data set: cell-based, Marburg virus.
Data set [2] has as its system EBOV GP-pseudotyped vesicular stomatitis virus. The data set can be described thus: microbe, parasite or virus in culture. Type of data set: cell-based, Ebola virus. As to conditions: for EC50: read-out: EC50, EBOV Entry; for EC90: read-out: EC90, EBOV Entry; for inhibition at 10 µM / inhibition at 50 µM: HEK-293T, read-out: EBOV VPEN (% activity).
The test system of the next data set is MARV. In words: organism not typed. The class given is cell-based, Marburg virus. As to conditions: for EC50: read-out: EC50, MARV Replication; for EC90: read-out: EC90, MARV Replication.
Data set [3] has as its system EBOV. In words: microbe, parasite or virus in culture. The class given is cell-based, Ebola virus. To be noted: for EC50: read-out: EC50, EBOV Replication; for EC90: read-out: EC90, EBOV Replication.
The test system of data set [4] is EBOV virus-like particles. Type of data set: cell-based, Ebola virus.
Data set [5] concerns LASV GP-pseudotyped vesicular stomatitis virus. In words: microbe, parasite or virus in culture. The class given is cell-based, Lassa virus. To be noted: for inhibition at 10 µM / inhibition at 50 µM: Vesicular stomatitis virus, HEK-293T, read-out: LASV VPEN (% activity).
Data set [6] deals with EBOV. The class given is cell-based, Ebola virus.
A further data set deals with LASV. Type of data set: cell-based, Lassa virus.
The nature of the next data set: in vivo. As to conditions: male, Balb/c, mouse, ip, 90 mg/kg.
The conditions of data set [7]: mouse, in vivo.
Data set [8] has as its system EBOV. The class given is cell-based, Ebola virus. The source holds these as a separate data set.
For data set [9] the following is noted: cited from earlier work.
The test system of data set [10] is Francisella tularensis. The data set can be described thus: microbe, parasite or virus in culture. Type of data set: cell-based. As to conditions: J774.A1, 15 h, read-out: Fransciella tularensis ICR (% protection).
The subject of data set [11] is Bacillus anthracis. The data set can be described thus: microbe, parasite or virus in culture. As to conditions: J774.A1, 15 h, read-out: Bacillus anthracis ICR (% protection). Type of data set: cell-based.
The subject of data set [12] is Francisella tularensis. The class given is cell-based. As to conditions: 50 µM.
The subject of data set [13] is Bacillus anthracis. Also noted: species or system Balb/c mice. As to conditions: in vivo.
Another data set relates to Coxiella burnetii. In words: microbe, parasite or virus in culture. The class given is cell-based. As to conditions: Vero, 168 h, read-out: Coxiella burnetii ICR (% protection).
Data set [14] deals with Bacillus anthracis. Type of data set: cell-based. As to conditions: 50 µM.

Where two headings read alike, the source gives them in different places.

As a reminder, the EC50 is the concentration at which the effect is half-maximal. Usually EC90 stands for the concentration needed for an effect of 90%. As to `CCN(CC)CCCNc1ccnc2cc(Cl)ccc12` [AQ-13, Aminoquinoline-13], the concentration for a half-maximal effect (EC50) in [1] worked out at 4.3 µM; in data set [2], 4.3 µM; in the data set with MARV, 42 µM; with EBOV [3], 21 µM. The 90% effect concentration (EC90) in [1] is 16 µM; in data set [2], 20 µM; in the data set on MARV it was 48 µM; in the data set on EBOV [3], 39 µM.
On to `CCN(CC)Cc1cc(Nc2ccnc3cc(Cl)ccc23)ccc1O` [Amodiaquine], for which the “effect on number of VLPs bound per cell” value in data set [4] was “no significant difference in binding”. Further, the inhibition at 10 µM in [1] (Vesicular stomatitis virus) turned out to be 97%; in [2] (Zaire ebolavirus), 99%; in data set [5] it was 51%. In addition, the EC50 in data set [1] (Vesicular stomatitis virus) stood at 2.3 µM; in data set [2] (Zaire ebolavirus), 2.6 µM; with MARV, 8.3 µM; with EBOV [3] (Zaire ebolavirus), 8.4 µM. The EC90 in data set [1] (Vesicular stomatitis virus) turned out to be 6.5 µM; in data set [2] (Zaire ebolavirus) it was 8 µM; in the data set on MARV, 16 µM; with EBOV [3] (Zaire ebolavirus) it was 17 µM. The “EBOV VR” value in the data set on EBOV [6] (10 µM) is listed as “−”. In addition, the “LASV VR” value with LASV (10 µM) is listed as “−”.
In general, AUC refers to concentration integrated over time. A higher AUC goes with more exposure. The term Tmax denotes the time at which the peak concentration occurs. A word on the half-life: it is how long it takes for the measured level to halve. By Cmax is commonly meant the highest concentration seen after dosing. Turning to `CCN(CC)CCCC(C)Nc1ccnc2cc(Cl)ccc12` (stereo not shown) [Chloroquine], the “effect on number of VLPs bound per cell” value in data set [4] is reported as “no significant difference in binding”. For the same compound, in the data set “in vivo”, the AUC is 23 µg·h/mL, the time to peak (Tmax) was determined as 0.5 h and the half-life was roughly 7 h. The Cmax in the data set “in vivo” (Cmax) was found to be 5.33 µg/mL. In [1] (Vesicular stomatitis virus), the inhibition at 50 µM came to 97%, the half-maximal effective concentration (EC50) amounted to 5.5 µM and the EC90 turned out to be 24 µM. Moreover, in data set [7] (male, Balb/c), the “Apparent Css” value was ~ 2.5 μg/ml, the “apparent steady state concentration” value is on record as 2,500 ng/mL and the “time to apparent steady state after initiating treatment” value is 35 to 40 h. The “survival of mice on repeat dosing (tolerability)” value in data set [7] is on record as “all mice survived”. Besides, in [2] (Zaire ebolavirus), the inhibition at 50 µM worked out at 97%, the EC50 was 4.7 µM and the EC90 was determined as 43 µM. The inhibition at 50 µM in [5] (50 µM) turned out to be 34%. Also, the “EBOV VR” value with EBOV [6] (50 µM) is on record as “+”. Besides, the “co-localization of virus particles with EEA1 / LAMP1” value with EBOV [8] is “most particles were now associated with EEA1 and very few particles were co-localized with LAMP1”. Also, the “LASV VR” value in the data set on LASV (50 µM) is listed as “−”. In the data set with MARV, the EC50 worked out at 15 µM and the EC90 stood at 21 µM. In addition, in the data set with EBOV [3] (Zaire ebolavirus), the EC50 was found to be 16 µM and the EC90 stood at 25 µM.
Turning to `CC[C@H]1OC(=O)[C@H](C)[C@@H](O[C@H]2C[C@@](C)(OC)[C@@H](O)[C@H](C)O2)[C@H](C)[C@@H](O[C@@H]2O[C@H](C)C[C@H](N(C)C)[C@H]2O)[C@](C)(OC)C[C@@H](C)C(=O)[C@H](C)[C@@H](O)[C@]1(C)O` [Clarithromycin], the bioavailable in [9] (humans, no reference given) is reported as roughly 50%.
In the case of `CC[C@H]1OC(=O)[C@H](C)[C@@H](O[C@H]2C[C@@](C)(OC)[C@@H](O)[C@H](C)O2)[C@H](C)[C@@H](O[C@@H]2O[C@H](C)C[C@H](N(C)C)[C@H]2O)[C@](C)(O)C[C@@H](C)[C@@H]2N[C@@H](COCCOC)O[C@H]([C@H]2C)[C@]1(C)O` [Dirithromycin], the inhibition at 50 µM with Francisella tularensis [10] is 88%; in the data set on Bacillus anthracis [11] it was 92%; in data set [1] (Vesicular stomatitis virus) it was 91%; in [2] (Zaire ebolavirus), 99%; in data set [5] (50 µM), -11%. For the same compound, the “Fransciella tularensis Broth (% protection)” value with Francisella tularensis [12] is reported as “+”. Moreover, in the data set on Bacillus anthracis [13] (mouse), the “protection of mice against BA infection (% of the mice)” value is 20%. Besides, in [5] (50 µM), the “LASV VPEN (% activity)” value is “no activity”. Also, in the data set on EBOV [6] (50 µM), the “EBOV VR” value was “−”. Moreover, the inhibition of growth at 50 µM with Coxiella burnetii is 0%. The “LASV VR” value in the data set on LASV (50 µM) is on record as “−”. Besides, the “Bacillus anthracis Broth (% protection)” value in the data set on Bacillus anthracis [14] is reported as “+”.
As to `CC[C@H]1OC(=O)[C@H](C)[C@@H](O[C@H]2C[C@@](C)(OC)[C@@H](O)[C@H](C)O2)[C@H](C)[C@@H](O[C@@H]2O[C@H](C)C[C@H](N(C)C)[C@H]2O)[C@](C)(O)C[C@@H](C)C(=O)[C@H](C)[C@@H](O)[C@]1(C)O` [Erythromycin], the inhibition at 50 µM with Francisella tularensis [10] was found to be 104%; in the data set on Bacillus anthracis [11] it was 96%. Also, the results for the inhibition at 10 µM in data set [1] (Vesicular stomatitis virus), in data set [2] (Zaire ebolavirus) and in data set [5] were 98%, 96% and 60%, respectively. Besides, in the data set with Francisella tularensis [12], the “Fransciella tularensis Broth (% protection)” value was “+”. In addition, in the data set with EBOV [6] (10 µM), the “EBOV VR” value is given as “−”. In addition, the inhibition of growth at 50 µM in the data set with Coxiella burnetii is 100%. Moreover, the “LASV VR” value with LASV (10 µM) is given as “−”. Also, in the data set with Bacillus anthracis [14], the “Bacillus anthracis Broth (% protection)” value is “+”.
As for `CCN(CCO)CCCC(C)Nc1ccnc2cc(Cl)ccc12` (stereo not shown) [HCQ, Hydroxychloroquine], in data set [4], the “effect on number of VLPs bound per cell” value was “no significant difference in binding”. Besides, the EC50 in [1] (Vesicular stomatitis virus) was 9.8 µM; in [2] (Zaire ebolavirus), 9.5 µM; with MARV it was 18 µM; with EBOV [3] (Zaire ebolavirus), 22 µM. Moreover, the EC90 worked out at 52 µM in data set [1] (Vesicular stomatitis virus), 85 µM in data set [2] (Zaire ebolavirus), 19 µM in the data set on MARV and 32 µM in the data set on EBOV [3] (Zaire ebolavirus).
Take `CCn1cc(C(=O)O)c(=O)c2cc(F)c(N3CCNC(C)C3)c(F)c21` (stereo not shown) [Lomefloxacin]: the figures for the inhibition at 50 µM with Francisella tularensis [10] and in the data set on Bacillus anthracis [11] were 98% and 95%, respectively. Moreover, the “Fransciella tularensis Broth (% protection)” value with Francisella tularensis [12] is reported as “+”. For the same compound, the “efficacy in preventing mouse death following BA infection (rank)” value with Bacillus anthracis [13] is given as “most efficacious drug”. Further, the inhibition of growth at 50 µM with Coxiella burnetii is 100%. Also, the “maximum concentration (Cmax)” value in [9] (following a 400 mg dose in humans) is 2 to 4 µg/mL. Further, the bioavailability in [9] (humans) is on record as 95–98%. The “Bacillus anthracis Broth (% protection)” value in the data set with Bacillus anthracis [14] is recorded as “+”.
Take `CCn1cc(C(=O)O)c(=O)c2cc(F)c(N3CCNCC3)cc21` [Norfloxacin]: the results for the inhibition at 50 µM with Francisella tularensis [10] and in the data set on Bacillus anthracis [11] were 83% and 105%, respectively. Further, the “Fransciella tularensis Broth (% protection)” value with Francisella tularensis [12] was “+”. In addition, in the data set on Coxiella burnetii, the inhibition of growth at 50 µM stood at 0%. Besides, in [9] (humans, dose not given), the Cmax is given as 2 µg/mL. Besides, the “Bacillus anthracis Broth (% protection)” value in the data set on Bacillus anthracis [14] was “+”.
